The source of these data is patent publication US5922697A, “Compounds, compositions and methods for inhibiting the binding of proteins containing an SH2 domain to cognate phosphorylated proteins” (Warner-Lambert Company, priority 1998, dated 1999).

Like-named read-outs stand apart in the source and are kept apart here.

The target of one assay is T1, Src SH2 (Homo sapiens, UniProt P12931).
T1 construct: glutathione-S-transferase(GST)-Src SH2 fusion protein
The assay can be described thus: Inhibition of 125I-phosphopeptide binding to immobilized Src SH2. Conditions: competitive 125I-phosphopeptide displacement, GST-Src SH2 fusion protein, pH 7.5, room temperature, 20 minutes. How it is done: The binding affinities of compounds of the present invention to Src SH2 was determined using a competitive radiolabeled phosphopeptide displacement assay.
Binding was performed at room temperature for 20 minutes while continuously inverting the plate. […] Results are expressed as IC50 values in Table 1 below.

For another assay, the target named is T2, Abl SH2 (Homo sapiens, UniProt P00519).
T2 construct: glutathione-S-transferase(GST)-Abl SH2 fusion protein
T2 sequence (P00519 127-217 limits assumed): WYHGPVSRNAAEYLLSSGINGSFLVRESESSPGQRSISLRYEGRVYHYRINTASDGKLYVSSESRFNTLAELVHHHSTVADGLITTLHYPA
The experiment in a line: Inhibition of 125I-phosphopeptide binding to immobilized Abl SH2. The following applies: competitive 125I-phosphopeptide displacement, GST-Abl SH2 fusion protein, pH 7.5, room temperature, 20 minutes. How it is done:
The binding affinities of compounds of the present invention to Abl SH2 was determined using a competitive radiolabeled phosphopeptide displacement assay. […] Binding was performed at room temperature for 20 minutes while continuously inverting the plate.

Assay [1] addresses T3, PLCγ(C) SH2-GST binding to PDGF receptor kinase domain (Homo sapiens, UniProt P19174).
T3 construct: S-X-SH2-GST (X=Src, Ab1, Grb2, p85-N, p85-C, Syp-N, and PLCy-C domains)
T3 sequence (P19174 668-756 limits assumed): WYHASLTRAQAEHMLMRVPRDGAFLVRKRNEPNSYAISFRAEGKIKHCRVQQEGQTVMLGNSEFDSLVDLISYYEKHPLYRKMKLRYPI
The experiment in a line: Inhibition of activated PDGF receptor binding to 35S-SH2 domains: PLCγ(C) SH2-GST. The following applies: 35S-PLCγ(C) SH2-GST, immobilized PDGF receptor kinase domain, pH 7.5, room temperature, 30 minutes.
Protocol: (§1) Inhibition of Activated PDGF Receptor Binding to ^35 S-SH2 Domains
(§2) The assay was conducted at room temperature for 30 minutes while continuously inverting the plate. The resultant SH2-GST-PDGF receptor kinase complex was separated from excess ^35 S-SH2-GST protein by vacuum filtration and the amount of bound SH2-GST was determined by scintillation counting.

The target of assay [2] is T4, p85(C) SH2-GST binding to PDGF receptor kinase domain (Homo sapiens, UniProt P27986).
T4 construct: S-X-SH2-GST (X=Src, Ab1, Grb2, p85-N, p85-C, Syp-N, and PLCy-C domains)
The experiment in a line: Inhibition of activated PDGF receptor binding to 35S-SH2 domains: p85(C) SH2-GST. Conditions: 35S-p85(C) SH2-GST, immobilized PDGF receptor kinase domain, pH 7.5, room temperature, 30 minutes.
Protocol: as §1, §2

Assay [3] deals with T5, Syp(N) SH2-GST binding to PDGF receptor kinase domain (Homo sapiens, UniProt Q06124).
T5 construct: S-X-SH2-GST (X=Src, Ab1, Grb2, p85-N, p85-C, Syp-N, and PLCy-C domains)
The experiment in a line: Inhibition of activated PDGF receptor binding to 35S-SH2 domains: Syp(N) SH2-GST. The following applies: 35S-Syp(N) SH2-GST, immobilized PDGF receptor kinase domain, pH 7.5, room temperature, 30 minutes.
Protocol: as §1, §2

The target in assay [4] is T6, Grb2 SH2-GST binding to PDGF receptor kinase domain (Homo sapiens, UniProt P62993).
T6 construct: S-X-SH2-GST (X=Src, Ab1, Grb2, p85-N, p85-C, Syp-N, and PLCy-C domains)
The assay can be described thus: Inhibition of activated PDGF receptor binding to 35S-SH2 domains: Grb2 SH2-GST. Conditions: 35S-Grb2 SH2-GST, immobilized PDGF receptor kinase domain, pH 7.5, room temperature, 30 minutes.
Protocol: as §1, §2

The mark [5] stands for this setting: read-out: IC50, SRC SH2 Binding.
[6] abbreviates: read-out: IC50, Abl SH2 Binding.

T1 sequence (P12931 151-248 limits assumed): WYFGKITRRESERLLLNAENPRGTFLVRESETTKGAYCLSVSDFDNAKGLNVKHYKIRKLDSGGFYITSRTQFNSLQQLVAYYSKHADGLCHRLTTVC
T6 sequence (P62993 60-152 limits assumed): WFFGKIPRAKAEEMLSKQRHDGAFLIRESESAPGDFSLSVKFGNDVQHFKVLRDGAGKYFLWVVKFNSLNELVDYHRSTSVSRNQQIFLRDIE
T4 sequence (P27986 624-718 limits assumed): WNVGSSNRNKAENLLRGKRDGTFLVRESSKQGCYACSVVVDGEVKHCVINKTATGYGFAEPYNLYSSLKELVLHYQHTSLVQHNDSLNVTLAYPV
T5 sequence (Q06124 6-102): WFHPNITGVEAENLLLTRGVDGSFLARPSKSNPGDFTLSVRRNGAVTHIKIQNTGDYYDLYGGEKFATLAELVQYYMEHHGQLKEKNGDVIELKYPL

As for `CC(=O)N[C@@H](Cc1ccc(C(F)(F)P(=O)(O)O)cc1)C(=O)NC(C)c1ccc(OCC2CCCCC2)c(C(N)=O)c1` (single isomer, unassigned) [Example 63b, [S-(R*,R*)]- or [S-(R*,S*)]-[(4-{2-Acetylamino-2-[1-(3-carbamoyl-4-cyclohexylmethoxy-phenyl)-ethylcarbamoyl]-ethyl}-phenyl)-difluoro-methyl]-phosphonic acid], the IC50 on Src SH2 (setting [5]) stood at 29 µM; on Abl SH2 (setting [6]), 59 µM.
In the case of `CC(=O)N[C@@H](Cc1ccc(OP(=O)(O)O)cc1)C(=O)NC(C)c1ccc(OC(C)CC2CCCCC2)c(C(N)=O)c1` (single isomer, unassigned) [Example 64a, Phosphoric acid mono-[4-(2-acetylamino-2-{1-[3-carbamoyl-4-(2-cyclohexyl-1-methyl-ethoxy)-phenyl]-ethylcarbamoyl]-ethyl)-phenyl] ester], the IC50 at Src SH2 (IC50, SRC SH2 Binding) came out at 0.6 µM; at Abl SH2 (IC50, Abl SH2 Binding) it was 2.4 µM.
On the same counts, the results for `CC(=O)N[C@@H](Cc1ccc(OP(=O)(O)O)cc1)C(=O)NC(C)c1ccc(OC(C)CC2CCCCC2)c(C(N)=O)c1` (single isomer, unassigned) [Example 64b, Phosphoric acid mono-[4-(2-acetylamino-2-{1-[3-carbamoyl-4-(2-cyclohexyl-1-methyl-ethoxy)-phenyl]-ethylcarbamoyl}-ethyl)-phenyl] ester] are 11 µM and 14 µM.
Consider `CC(=O)N[C@@H](Cc1ccc(OP(=O)(O)O)cc1)C(=O)N[C@@H](CCC(=O)O)C(=O)N(C)CCCC1CCCCC1` [Example 1, [S-(R*,R*)]-4-[2-Acetylamino-3-(4-phosphonooxy-phenyl)-propionylamino]-4-[(3-cyclohexyl-propyl)-methylcarbamoyl]-butyric acid], for which the IC50 in assay [1], in assay [2], in assay [3] and in assay [4] was over 100 µM in each case.
As to `CC(=O)N[C@@H](Cc1ccc(C(F)(F)P(=O)(O)O)cc1)C(=O)N[C@@H](CCC(=O)O)C(=O)N(C)CCCC1CCCCC1` [Example 5, [S-(R*,R*)]-4-{2-Acetylamino-3-[4-(difluoro-phosphonomethyl)-phenyl]-propionylamino}-4-[(3-cyclohexylpropyl)-methyl-carbamoyl]-butyric acid], the IC50 in assay [1], in assay [2], in assay [3] and in assay [4] was over 100 µM each time.
As for `CC(=O)N[C@@H](Cc1ccc(OP(=O)(O)O)cc1)C(=O)N[C@@H](CCC(=O)O)C(=O)N1CCC[C@@H]1CCc1ccccc1` [Example 11, 4-[(S)-2-Acetylamino-3-(4-phosphonooxy-phenyl)-(S)-propionylamino]-5-oxo-5-((S)-2-phenethyl-pyrrolidin-1-yl)-pentanoic acid], the figures for the IC50 at Src SH2 (setting [5]) and at Abl SH2 (setting [6]) were 2.1 µM and 17 µM, respectively.
In the case of `CC(=O)N[C@@H](Cc1ccc(OP(=O)(O)O)cc1)C(=O)N[C@@H](CCC(=O)O)C(=O)N1CCC[C@@H]1CCC1CCCCC1` [Example 12, 4-[(S)-2-Acetylamino-3-(4-phosphonooxy-phenyl)-(S)-propionylamino]-5-[2-((S)-2-cyclohexyl-ethyl)-pyrrolidin-1-yl]-5-oxo-pentanoic acid], the IC50 at Src SH2 (setting [5]) amounted to 0.7 µM; at Abl SH2 (setting [6]), 2.5 µM.
For `CC(=O)N[C@@H](Cc1ccc(OP(=O)(O)O)cc1)C(=O)N[C@@H](CCC(=O)O)C(=O)NCCCc1cccc(OCC(N)=O)c1` [Example 24, [S-(R*,R*)]-4-[2-Acetylamino-3-(4-phosphonooxy-phenyl)-propionylamino]-4-[3-(3-carbamoylmethoxy-phenyl)-propylcarbamoyl]-butyric acid], the IC50 on Src SH2 (IC50, SRC SH2 Binding) was 7.2 µM; at Abl SH2 (IC50, Abl SH2 Binding), 36 µM.
Regarding `CCC(CC)(NC(=O)[C@H](Cc1ccc(OP(=O)(O)O)cc1)NC(C)=O)C(=O)NCCCc1ccccc1` [Example 57, (S)-Phosphoric acid mono-(4-{2-acetylamino-2-[1-ethyl-1-(3-phenyl-propylcarbamoyl)-propylcarbamoyl]-ethyl}-phenyl) ester], the IC50 at Src SH2 (IC50, SRC SH2 Binding) was determined as 33 µM; on Abl SH2 (IC50, Abl SH2 Binding), 20 µM.
For `CC(=O)N[C@@H](Cc1ccc(OP(=O)(O)O)cc1)C(=O)N[C@H](C(=O)NCCCc1ccccc1)C(C)O` (stereo partly drawn) [Example 58, [S-(R*,R*)]-Phosphoric acid mono-(4-{2-acetylamino-2-[2-hydroxy-1-(3-phenyl-propylcarbamoyl)-propylcarbamoyl]-ethyl}-phenyl) ester] the same measures were 21 µM and about 60 µM.
Regarding `CN(C)C(=O)N[C@@H](Cc1ccc(OP(=O)(O)O)cc1)C(=O)N[C@@H](CCC(=O)O)C(=O)N(C)CCCC1CCCCC1` [Example 59, [S-(R*,R*)]-4-[(3-Cyclohexyl-propyl)-methyl-carbamoyl]-4-[2-(3,3-dimethyl-ureido)-3-(4-phosphonooxy-phenyl)-propionylaminol-butyric acid], the IC50 came to 1.1 µM on Src SH2 (IC50, SRC SH2 Binding) and 4.5 µM at Abl SH2 (IC50, Abl SH2 Binding).
For `CN(CCCC1CCCCC1)C(=O)[C@H](CCC(=O)O)NC(=O)[C@H](Cc1ccc(OP(=O)(O)O)cc1)NS(=O)(=O)N(C)C` [Example 60, 5-[(3-cyclohexylpropyl)methylamino]-4-[[2-[[(dimethylamino)-sulfonyl]amino]-1-oxo-3-[4-(phosphonooxy)phenyl]propyl]amino]-5-oxo-pentanoic acid] the same measures were 1.9 µM and 9.7 µM.
On the same counts, the results for `CN(CCCC1CCCCC1)C(=O)[C@H](CCC(=O)O)NC(=O)NCc1ccc(OP(=O)(O)O)cc1` [Example 61, (S)-4-[(3-Cyclohexyl-propyl)--methyl-carbamoyl]-4-[3-(4-phosphonooxy-benzyl)-ureido]-butyric acid] are 16 µM and about 100 µM.
With `CN(CCCC1CCCCC1)C(=O)[C@H](CCC(=O)O)NC(=O)c1ccc(OP(=O)(O)O)cc1` [Example 62, (S)-4-[(3-Cyclohexyl-propyl)-methyl-carbamoyl]-4-(4-phosphonooxy-benzoylamino)-butyric acid], the IC50 at Src SH2 (IC50, SRC SH2 Binding) stood at 8.3 µM; at Abl SH2 (IC50, Abl SH2 Binding), 44 µM.
On the same counts, the results for `CC(=O)N[C@@H](Cc1ccc(OP(=O)(O)O)cc1)C(=O)NCc1ccc(OCC2CCCCC2)c(C(=O)NO)c1` [Example 70, (S)-Phosphoric acid mono-{4-[2-acetylamino-2-(4-cyclohexylmethoxy-3-hydroxycarbamoyl-benzylcarbamoyl)-ethyl]-phenyl} ester] are 24 µM and 16 µM.
On the same counts, the results for `CCc1ccccc1COc1ccc(CNC(=O)[C@H](Cc2ccc(OP(=O)(O)O)cc2)NC(C)=O)cc1C(N)=O` [Example 72, (S)-Phosphoric acid mono-(4-{2-acetylamino-2-[3-carbamoyl-4-(2-ethyl-benzyloxy)-benzylcarbamoyl]-ethyl}-phenyl) ester] are 6.2 µM and 28 µM.
On the same counts, the results for `NC(=O)c1cc(CNC(=O)Nc2ccc(OP(=O)(O)O)cc2)ccc1OCC1CCCCC1` [Example 74, Phosphoric acid mono-{4-[3-(3-carbamoyl-4-cyclohexylmethoxy-benzyl)-ureido]-phenyl} ester] are 20 µM and over 100 µM.
With `NC(=O)c1cc(CNC(=O)NCc2ccc(OP(=O)(O)O)cc2)ccc1OCC1CCCCC1` [Example 76, Phosphoric acid mono-{4-[3-(3-carbamoyl-4-cyclohexylmethoxy-benzyl)-ureidomethyl]-phenyl} ester], the half-maximal inhibitory concentration (IC50) was 34 µM on Src SH2 (IC50, SRC SH2 Binding) and over 100 µM at Abl SH2 (IC50, Abl SH2 Binding).

The IC50 is the midpoint of a concentration-inhibition curve.
